Consider 2 compounds from patent publication US10500202B2, “Pharmaceutical formulation containing tadalafil” (Druggability Technologies IP Holdco Limited, priority 2016, dated 2019).

Molecules are shown by their SMILES. Read-outs that look alike come from different tables or passages of the source.

For data set [1] the following is noted: cited from earlier work.
Another data set in a line: PAMPA permeability. It is filed as in vitro ADME. How it is done: PAMPA permeability of the selected compositions was measured in order to select the pharmaceutical Tadalafil compositions having the best in-vitro performance (FIG. 2). PAMPA permeability measurements were performed as described by M. Kansi et al. (Journal of medicinal chemistry, 41, (1998) pp 1007) with modifications based on S. Bendels et al (Pharmaceutical research, 23 (2006) pp 2525). Permeability was measured in a 96-well plate assay across an artificial membrane composed of dodecane with 20% soy lecithin supported by a PVDF membrane (Millipore, USA). The receiver compartment was phosphate buffered saline (pH 7.0) supplemented with 1% sodium dodecyl sulfate. The assay was performed at room temperature; incubation time was 4 hours in ultrapurified water or 10-20 and 30 minutes in simulates saliva, respectively. The concentration in the receiver compartment was determined by UV-VIS spectrophotometry (Thermo Scientific Genesys S10).
PAMPA permeabilities of Tadalafil pharmaceutical compositions in water (H2O), FaSSIF (Fa) and FeSSIF (Fe) media were above 7.6×10^−6 cm/s, 7.2×10^−6 cm/s and 4.3×10^−6 cm/s, respectively, while it was 0.6×10^−6 cm/s, 0.6×10^−6 cm/s and 0.8*10^−6 cm/s in water, FaSSIF and FeSSIF media for the unformulated, crystalline reference. PAMPA permeability of Cialis® in water, FaSSIF and FeSSIF media was above 0.9×10^−6 cm/s, 0.8×10^−6 cm/s and 1.1×10^−6 cm/s, respectively.
PAMPA permeability of the solid Tadalafil pharmaceutical compositions was used to monitor the physical stability of the pharmaceutical formulation. PAMPA permeability was measured after storage at different conditions.

For data set [2] the following is noted: 10 mg/kg, beagle dog, cited from earlier work.
For data set [3] the following is noted: cited from earlier work. The source holds these as a separate data set.

Regarding `Cc1cccc(O)c1O` [Methylcatechol], in data set [1] (circulating metabolites of Tadalafil), the “Methylcatechol concentrations relative to glucuronide concentrations” value is recorded as “less than 10%”.

Consider `CN1CC(=O)N2[C@H](c3ccc4c(c3)OCO4)c3[nH]c4ccccc4c3C[C@@H]2C1=O` [Tadalafil], for which the Papp in the data set “PAMPA permeability” (pH 7, FaSSIF) is 6 nm/s. In “PAMPA permeability” (pH 7, FeSSIF), this compound yielded an apparent permeability (Papp) of 8 nm/s. In addition, the Papp at 4 h in the data set “PAMPA permeability” (pH 7, Water) amounted to 6 nm/s. In addition, the “Estimated F” value in data set [2] (iv, published (reference)) is 100%. In data set [2] (iv, published), the AUC24 was 22.894 µg·h/mL and the Cmax was 3.663 µg/mL. For the same compound, in data set [2] (oral, published), the AUC24 was 4.109 ± 3.141 µg·h/mL, the Cmax was 0.526 ± 0.281 µg/mL, the “Estimated F” value was 18% and the tmax is 3 h. In addition, the “Exposure (AUC) versus dose” value in data set [1] (dose range of 2.5 to 20 mg, healthy subjects) is recorded as “increases proportionally with dose”. Besides, in data set [1] (healthy subjects), the “Fraction of administered dose in semen” value is listed as “Less than 0.0005%”, the Mean oral clearance was 2.5 L/h and the Mean terminal half-life was 17.5 h. For the same compound, in data set [1] (once-daily dosing), the “Steady-state exposure relative to a single dose” value is listed as “approximately 1.6 fold” and the “Time to steady-state plasma concentrations” value is at most 5 days. Also, the “Mean apparent volume of distribution” value in data set [1] (oral administration) is on record as “approximately 63 L”. The “Effect of food on rate and extent of absorption” value in data set [1] (oral) is reported as “not influenced by food”. Further, in data set [1] (predominantly as metabolites), the “Excretion in the feces” value is “approximately 61 % of the dose” and the “Excretion in the urine” value was “approximately 36 % of the dose”. The tmax values in data set [1] (range) was 0.5 to 6 h. For the same compound, the “Fraction in plasma bound to proteins” value in data set [1] (therapeutic concentrations) is 94%. The Solubility entry in data set [3] (ethanol) is recorded as “very slightly soluble”. Moreover, the Solubility entry in data set [3] (water) is recorded as “practically insoluble”.
